# Read-outs that look alike come from different tables or passages of the source.
# Legend:
# [1] = test system: MCF-7 human breast adenocarcinoma cell line; assay: SRB cell proliferation (cytotoxicity) assay, MCF-7
# Excerpt: (§1) The XLSTAT software was used to determine the IC50, TGI and LC50 values using the four-parameter logistic curve equation.
# [2] = test system: DU-145 human prostate carcinoma cell line; assay: SRB cell proliferation (cytotoxicity) assay, DU-145; conditions: for Relative cell viability (%): human
# Excerpt: as §1
# [3] = test system: A-375 human malignant melanoma; assay: SRB cell proliferation (cytotoxicity) assay, A-375
# Excerpt: as §1
# [4] = test system: HT-29 human colorectal adenocarcinoma; assay: SRB cell proliferation (cytotoxicity) assay, HT-29
# Excerpt: as §1
# [5] = test system: HCT 116 human colorectal carcinoma; assay: SRB cell proliferation (cytotoxicity) assay, HCT 116
# Excerpt: as §1
# [6] = test system: SK-BR-3 human breast adenocarcinoma; assay: SRB cell proliferation (cytotoxicity) assay, SK-BR-3
# Excerpt: as §1
# [7] = test system: OVCAR-3 human ovarian adenocarcinoma cell line; assay: SRB cell proliferation (cytotoxicity) assay, OVCAR-3; conditions: for Relative cell viability (%): human
# Excerpt: as §1
# in vitro = conditions: human
# Excerpt: as §1
# [8] = test system: NHF human foreskin skin fibroblasts; assay: SRB cell proliferation (cytotoxicity) assay, NHF; conditions: for IC50: read-out: IC50: Concentration to inhibit 50% of cell growth
# Excerpt: as §1
# [9] = biological target: T1, native human galectin-1 (hGal1) (Homo sapiens, UniProt P09382); assay: Thermofluor thermal shift assay (TSA), native galectin-1; format: binding; conditions: 5 μM protein
# T1 construct: 42; made in house; host or cells: E. coli strain M-15
# Protocol: In an attempt to screen among the selected aptamers that better interact with hGal1, differential scanning fluorimetry (Termofluor) was used to characterize their binding to its target. Among all the selected aptamers, SEQ ID NO.: 4 seemed to have a more intense effect on hGal1 thermoshift and so was chosen for further analysis. The selected aptamer had its interaction evaluated with native and alkylated galectin-1. […] The respective thermal displacements were evaluated as a function of an increasing concentration of SEQ ID NO.: 4 (FIG. 1).
# Thermofluor experiments were performed on an Mx3005 RT-PCR (Agilent Technologies) using the SYPRO® Orange dye (492/610 nm) (Invitrogen) as fluorescent probe. The purified (native and alkylated) protein samples were incubated for 30 min with increasing concentration of the molecules of interest, centrifuged, and submitted to the thermal denaturation assay, totalizing four distinct experiments. In a 96-well plate (Agilent Technologies) 20 μl of the reaction containing 5 μM of each protein in buffer PBS 1× and 5× SYPRO® Orange were heated from 25° C. to 95° C. at a rate of 1° C./min. The experimental result was processed as in the protocol previously described and the melting temperature was obtained using GraphPad Prism software (www.graphpad.com).
# [10] = biological target: T2, hGal1-induced hemagglutination of red blood cells (Homo sapiens, UniProt P09382); assay: Hemagglutination inhibition assay, native hGal1; format: cell-based; conditions: native Gal1 5 μM
# T2 construct: 42; made in house; host or cells: E. coli strain M-15
# Protocol: Hemagglutination Inhibition Assay
# Hemagglutination assay was adopted to assess the capacity of SEQ ID NO.: 4 in inhibiting the lectin cross-linking aggregation of red blood cells (RBC), as previously described. Briefly, using a 96-well microplates appropriate amounts of 5 μM hGal1 were blended with 50 μL of aptamer in an increasing concentrations manner (0-40 μM) in PBS 1× buffer (pH 7.4). Following, 50 μL of 3% purified type B+ RBC in PBS. After 2 h of room temperature incubation, the plate was photographed and the hemagglutination area was estimated by area calculator Sketchandcalc™ and the results were expressed as relative agglutination.
# OVCAR-3 cell line = assay: Synergism test with cisplatin, OVCAR-3; conditions: cisplatin 3 μM
# Excerpt: For the analysis of cell proliferation, the non-clonogenic method of sulforodamine B (SRB) was used, a protein dye that binds to the basic amino acid residues of cell proteins that were viable at the time of the fixation process. Therefore, the greater the amount of SRB bound per compartment, the less the antiproliferative activity of the item under study.
# [11] = Homo sapiens, MCF7, read-out: Relative cell viability (%)
# [12] = Homo sapiens, DU-145, read-out: Relative cell viability (%)
# [13] = Homo sapiens, A-375, read-out: Relative cell viability (%)
# [14] = Homo sapiens, HT-29, read-out: Relative cell viability (%)
# [15] = Homo sapiens, HCT-116, read-out: Relative cell viability (%)
# [16] = Homo sapiens, SK-BR-3, read-out: Relative cell viability (%)
# [17] = Homo sapiens, OVCAR-3, read-out: Relative cell viability (%)
# T2 sequence (P09382 2-135): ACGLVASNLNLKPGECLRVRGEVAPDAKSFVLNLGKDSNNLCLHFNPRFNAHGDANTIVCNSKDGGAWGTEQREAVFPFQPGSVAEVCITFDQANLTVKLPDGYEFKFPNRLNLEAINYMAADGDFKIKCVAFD
# T1 sequence (P09382 2-135): as above
molecule,measurement,setting,value
"CC(=O)O[C@H]1C(=O)[C@@]2(C)[C@H]([C@H](OC(=O)c3ccccc3)[C@]3(O)C[C@H](OC(=O)[C@H](O)[C@@H](NC(=O)c4ccccc4)c4ccccc4)C(C)=C1C3(C)C)[C@]1(OC(C)=O)CO[C@@H]1C[C@@H]2O [Paclitaxel, reference compound]",IC50,"[1]; Homo sapiens, MCF7, read-out: IC50: Concentration to inhibit 50% of cell growth",0.00282 µM
same,viability at 0.000781 µM,[1]; [11],87.9%
same,viability at 0.001562 µM,[1]; [11],65.5%
same,viability at 0.003125 µM,[1]; [11],47.6%
same,viability at 0.00625 µM,[1]; [11],36.9%
same,viability at 0.0125 µM,[1]; [11],29.3%
same,viability at 0.05 µM,[1]; [11],23.6%
same,viability at 0.1 µM,[1]; [11],24.7%
same,TGI: Concentration for total inhibition of cell growth,[2]; DU-145,0.013021 µM
same,IC50,"[2]; Homo sapiens, DU-145, read-out: IC50: Concentration to inhibit 50% of cell growth",0.0072 µM
same,viability at 0.000781 µM,[2]; [12],104%
same,viability at 0.001562 µM,[2]; [12],95.5%
same,viability at 0.003125 µM,[2]; [12],97.3%
same,viability at 0.00625 µM,[2]; [12],58.9%
same,viability at 0.0125 µM,[2]; [12],8.4%
same,Relative cell viability (%),[2]; 0.05 µM,−15.7%
same,Relative cell viability (%),[2]; 0.1 µM,−25.6%
same,viability at 0.000781 µM,[3]; [13],117%
same,viability at 0.001562 µM,[3]; [13],96.3%
same,viability at 0.003125 µM,[3]; [13],99.4%
same,viability at 0.00625 µM,[3]; [13],98.8%
same,viability at 0.0125 µM,[3]; [13],113%
same,viability at 0.05 µM,[3]; [13],91.2%
same,viability at 0.1 µM,[3]; [13],69%
same,IC50,"[4]; Homo sapiens, HT-29, read-out: IC50: Concentration to inhibit 50% of cell growth",0.00631 µM
same,viability at 0.000781 µM,[4]; [14],102%
same,viability at 0.001562 µM,[4]; [14],99.1%
same,viability at 0.003125 µM,[4]; [14],80.8%
same,viability at 0.00625 µM,[4]; [14],48.8%
same,viability at 0.0125 µM,[4]; [14],24.5%
same,viability at 0.05 µM,[4]; [14],6.7%
same,viability at 0.1 µM,[4]; [14],5%
same,IC50,"[5]; Homo sapiens, HCT-116, read-out: IC50: Concentration to inhibit 50% of cell growth",0.00646 µM
same,viability at 0.000781 µM,[5]; [15],96.2%
same,viability at 0.001562 µM,[5]; [15],96.6%
same,viability at 0.003125 µM,[5]; [15],90.9%
same,viability at 0.00625 µM,[5]; [15],50.6%
same,viability at 0.0125 µM,[5]; [15],17.5%
same,viability at 0.05 µM,[5]; [15],3.4%
same,viability at 0.1 µM,[5]; [15],4.7%
same,IC50,"[6]; Homo sapiens, SK-BR-3, read-out: IC50: Concentration to inhibit 50% of cell growth",0.0148 µM
same,viability at 0.000781 µM,[6]; [16],113%
same,viability at 0.001562 µM,[6]; [16],113%
same,viability at 0.003125 µM,[6]; [16],119%
same,viability at 0.00625 µM,[6]; [16],106%
same,viability at 0.0125 µM,[6]; [16],68.3%
same,viability at 0.05 µM,[6]; [16],12.3%
same,viability at 0.1 µM,[6]; [16],13.9%
same,IC50,"[7]; Homo sapiens, OVCAR-3, read-out: IC50: Concentration to inhibit 50% of cell growth",0.01 µM
same,CC50,"[7]; Homo sapiens, OVCAR-3, read-out: LC50: Concentration for 50% cell death",0.0351 µM
same,viability at 0.000781 µM,[7]; [17],96.9%
same,viability at 0.001562 µM,[7]; [17],90.1%
same,viability at 0.003125 µM,[7]; [17],89.6%
same,viability at 0.00625 µM,[7]; [17],69.6%
same,viability at 0.0125 µM,[7]; [17],31.1%
same,TGI: Concentration for total inhibition of cell growth,[7]; OVCAR-3,0.015402 µM
same,Relative cell viability (%),[7]; 0.05 µM,−45.1%
same,Relative cell viability (%),[7]; 0.1 µM,−57.5%
same,CC50,in vitro,> 0.1 µM
same,viability at 0.000781 µM,in vitro,86.6%
same,viability at 0.001562 µM,in vitro,79.7%
same,viability at 0.003125 µM,in vitro,72.1%
same,viability at 0.00625 µM,in vitro,61.9%
same,viability at 0.0125 µM,in vitro,58.6%
same,viability at 0.05 µM,in vitro,28.7%
same,viability at 0.1 µM,in vitro,16.9%
same,IC50,"[8]; Homo sapiens, Skin fibroblast",0.0187 µM
same,TGI: Concentration for total inhibition of cell growth,[8]; NHF,>0.1 µM
"AGCTGACACAGCAGGTTGGTGCGCCCAATACAGGCGCAGTATCTGTCCGTGGGCCGGGTAAAAGTTACGGACCGAGTCGAGCAATCTCGAAAT (nucleic acid, chemistry not given here) DNA: AGCTGACACAGCAGGTTGGTGCGCCCAATACAGGCGCAGTATCTGTCCGTGGGCCGGGTAAAAGTTACGGACCGAGTCGAGCAATCTCGAAAT",TGI: Concentration for total inhibition of cell growth,[1]; MCF-7,48.434 µM
same,IC50,"[1]; read-out: IC50: Concentration to inhibit 50% of cell growth, MCF-7",17.8 µM
same,CC50,"[1]; read-out: LC50: Concentration for 50% cell death, MCF-7",84.1 µM
same,TGI: Concentration for total inhibition of cell growth,[2]; DU-145,42.423 µM
same,IC50,"[2]; read-out: IC50: Concentration to inhibit 50% of cell growth, DU-145",23.4 µM
same,CC50,"[2]; read-out: LC50: Concentration for 50% cell death, DU-145",83.5 µM
same,TGI: Concentration for total inhibition of cell growth,[3]; A-375,36.326 µM
same,IC50,"[3]; read-out: IC50: Concentration to inhibit 50% of cell growth, A-375",26.3 µM
same,CC50,"[3]; read-out: LC50: Concentration for 50% cell death, A-375",51.5 µM
same,TGI: Concentration for total inhibition of cell growth,[4]; HT-29,30.010 µM
same,IC50,"[4]; read-out: IC50: Concentration to inhibit 50% of cell growth, HT-29",14.6 µM
same,CC50,"[4]; read-out: LC50: Concentration for 50% cell death, HT-29",60.3 µM
same,TGI: Concentration for total inhibition of cell growth,[5]; HCT 116,41.730 µM
same,IC50,"[5]; read-out: IC50: Concentration to inhibit 50% of cell growth, HCT 116",16 µM
same,CC50,"[5]; read-out: LC50: Concentration for 50% cell death, HCT 116",96.3 µM
same,TGI: Concentration for total inhibition of cell growth,[6]; SK-BR-3,37.529 µM
same,IC50,"[6]; read-out: IC50: Concentration to inhibit 50% of cell growth, SK-BR-3",24.3 µM
same,CC50,"[6]; read-out: LC50: Concentration for 50% cell death, SK-BR-3",60.2 µM
same,TGI: Concentration for total inhibition of cell growth,[7]; OVCAR-3,37.711 µM
same,IC50,"[7]; read-out: IC50: Concentration to inhibit 50% of cell growth, OVCAR-3",11.1 µM
same,CC50,"[7]; read-out: LC50: Concentration for 50% cell death, OVCAR-3",87.8 µM
same,TGI: Concentration for total inhibition of cell growth,[8]; NHF,53.452 µM
same,IC50,[8]; NHF,33.7 µM
same,CC50,"[8]; read-out: LC50: Concentration for 50% cell death, NHF",93.6 µM
same,variation of denaturation temperature (Tm) of native hGal1,[9],greater variation
same,inhibitory effect on galectin-induced hemagglutination,[10],better effect
same,effect on the profile of antiproliferative activity in association with cisplatin,OVCAR-3 cell line,enhances

# From patent US11649460B2, “DNA aptamers, method for inhibiting human galectin-1 and method of treating a mammal in need thereof” (priority 2020, dated 2023)
